Molecules are shown by their SMILES. Structures can show the parent of a compound that is named as a salt.

For the first test, the target named is T1, H^+ K^+ ATPase (Sus scrofa, UniProt P19156).
T1 construct: Lyophilised gastric vesicles were prepared from pig fundic mucosa; from tissue; host or cells: pig fundic mucosa (lyophilised gastric vesicles)
T1 sequence (P19156 2-1034 limits assumed): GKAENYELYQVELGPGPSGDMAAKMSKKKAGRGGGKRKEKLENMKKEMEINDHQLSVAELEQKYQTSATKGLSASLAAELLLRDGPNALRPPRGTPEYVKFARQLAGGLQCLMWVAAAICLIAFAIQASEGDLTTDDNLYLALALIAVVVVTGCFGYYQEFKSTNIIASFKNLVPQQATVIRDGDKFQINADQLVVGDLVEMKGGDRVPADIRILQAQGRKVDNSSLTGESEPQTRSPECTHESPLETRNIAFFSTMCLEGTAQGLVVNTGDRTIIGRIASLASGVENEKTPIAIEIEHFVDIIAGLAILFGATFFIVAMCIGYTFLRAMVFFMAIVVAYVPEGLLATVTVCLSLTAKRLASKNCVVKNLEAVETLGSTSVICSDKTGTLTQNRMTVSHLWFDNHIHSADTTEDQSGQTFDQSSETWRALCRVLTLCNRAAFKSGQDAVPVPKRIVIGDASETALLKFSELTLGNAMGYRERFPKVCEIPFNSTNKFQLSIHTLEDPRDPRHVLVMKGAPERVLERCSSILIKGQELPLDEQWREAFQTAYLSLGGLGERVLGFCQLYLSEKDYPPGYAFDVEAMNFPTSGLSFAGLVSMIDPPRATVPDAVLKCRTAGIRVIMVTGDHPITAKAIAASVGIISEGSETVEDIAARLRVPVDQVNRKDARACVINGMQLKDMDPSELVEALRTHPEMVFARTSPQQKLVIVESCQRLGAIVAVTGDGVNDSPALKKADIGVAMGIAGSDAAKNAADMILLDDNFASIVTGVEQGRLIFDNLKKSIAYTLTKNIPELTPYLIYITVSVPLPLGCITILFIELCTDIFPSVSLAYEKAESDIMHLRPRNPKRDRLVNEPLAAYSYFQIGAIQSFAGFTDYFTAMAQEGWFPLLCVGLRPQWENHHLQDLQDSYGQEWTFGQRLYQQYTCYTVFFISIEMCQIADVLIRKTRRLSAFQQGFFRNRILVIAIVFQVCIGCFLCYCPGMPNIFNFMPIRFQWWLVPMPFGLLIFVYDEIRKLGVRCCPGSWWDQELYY
T1 sequence (P18434 whole entry partner): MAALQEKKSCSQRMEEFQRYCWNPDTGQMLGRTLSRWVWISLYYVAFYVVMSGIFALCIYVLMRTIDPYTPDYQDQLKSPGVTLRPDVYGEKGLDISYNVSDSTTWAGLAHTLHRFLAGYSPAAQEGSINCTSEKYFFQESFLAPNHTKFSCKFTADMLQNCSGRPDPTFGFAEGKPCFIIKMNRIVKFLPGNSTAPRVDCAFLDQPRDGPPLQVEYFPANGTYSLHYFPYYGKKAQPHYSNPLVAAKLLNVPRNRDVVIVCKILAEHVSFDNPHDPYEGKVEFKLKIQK
In words: K^+ -stimulated ATPase activity in lyophilised gastric vesicles (H/K-ATPase). The test is classed as biochemical. The conditions noted are these: lyophilised gastric vesicles from pig fundic mucosa, 37° C., pH 7.0, 30 minutes. The method, then:
A. H^+ K^+ ATPase Activity The effects of a single high concentration (100 μM) of a compound of structure (I) on K^+ -stimulated ATPase activity in lyophilised gastric vesicles was determined. Preferred compounds of structure (I) were also tested over a range of concentrations to determine IC50 values. (i) Preparation of Lyonhilised Gastric Vesicles (H/K-ATPase) Lyophilised gastric vesicles were prepared from pig fundic mucosa after the method of Keeling et. al. (Biochem. Pharmacol., 34, 2967, 1985). (ii) K^+ -Stimulated ATPase Activity K^+ -stimulated ATPase activity was determined at 37° C. in the presence of the following: 10 mM Pipes/Tris buffer pH 7.0, 2 mM MgSO4, 1 mM KCl, 2 mM Na2 ATP and 3 μg protein/ml lyophilised gastric vesicles. After incubation for 30 minutes, the inorganic phosphate hydrolysed from ATP was determined by the method of Yoda and Hokin (Biochem. Biophys. Res. Commun. 40, 880, 1970). Compounds of structure (I) were dissolved in dimethylsulphoxide which up to the highest concentration used had no effect on K^+ -stimulated ATPase activity. The effect of the highest concentration of each compound of structure (I) on the recovery of a standard amount of inorganic phosphate was also determined.
Compound `CCOC(=O)c1cnc2sccc2c1Nc1ccccc1C` [Example 1, Ethyl 4-(2-methylohenylamino)thieno[2,3-b]pyridine-5-carboxylate] yielded a 50% inhibitory concentration (IC50) of 3000 nM. `CCOC(=O)c1cnc2sccc2c1NCc1ccccc1` [Example 2, Ethyl 4-benzylaminothieno[2,3-b]pyridine-5-carboxylate] displayed an IC50 of 9710 nM. Compared with the last compound, the IC50 is about 3.2-fold higher. Compound `CCOC(=O)c1cnc2ccsc2c1Nc1ccccc1C` [Example 3, Ethyl 7-(2-methylphenylamino)thieno[3,2-b]pyridine-6-carboxylate] showed an IC50 of 620 nM. Compared with the last compound, the IC50 is about 16-fold lower. Compound `CCOC(=O)c1cnc2ccsc2c1NCc1ccccc1` [Example 4, Ethyl 7-benzylaminothieno[3,2-b]pyridine-6-carboxylate] returned an IC50 of 4300 nM. On the same count and under the same terms, under `CCOC(=O)c1cnc2c(OC)csc2c1Nc1ccccc1C` [Example 7, Ethyl 3-methoxy-7-(2-methylohenylamino)thieno[3,2-b] pyridine-6-carboxylate] stands 21000 nM; under `CCCC(=O)c1cnc2c(OC)csc2c1Nc1ccccc1C` [Example 9, 6-Butyryl-7-(2-methylphenylamino)-3-methoxythieno[3,2-b]pyridine], 13000 nM. `CCCC(=O)c1cnc2ccsc2c1Nc1ccccc1C` [Example 11, 6-Butyryl-7-(2-methylphenylamino)thieno[3,2-b]pyridine]: the IC50 was determined as 880 nM. `CCCC(=O)c1cnc2ccsc2c1Nc1ccc(F)cc1C` [Example 12, 6-Butyryl-7-(4-fluoro-2-methylphenylamino)thieno[3,2-b]-pyridine] returned an IC50 of 4300 nM. `CCCC(=O)c1cnc2ccsc2c1Nc1ccccc1CC` [Example 13, 6-Butyryl-7-(2-ethylphenylamino)thieno[3,2-b]pyridine] had an IC50 of 1100 nM.

In turn, `CCCC(=O)c1cnc2ccsc2c1Nc1ccccc1CCC` [Example 14, 6-Butyryl-7-(2-propylphenylamino)thieno[3,2-b]pyridine hydrochloride] came in with an IC50 of 1200 nM. Turning to `CCCC(=O)c1cnc2ccsc2c1Nc1ccccc1C(C)C` [Example 15, 6-Butyryl-7-(2-isopropylphenylamino)thieno[3,2-b]pyridine], the IC50 was determined as 860 nM. The IC50 values of the last two compounds are within 1.5-fold of each other. In the case of `CCCC(=O)c1cnc2ccsc2c1Nc1ccc(O)cc1C` [Example 16, 6-Butyryl-(4-hydroxy-2-methylphenylamino)thieno[3,2-b]-pyridine], half-maximal inhibition (IC50) was put at 330 nM.

The test system of a further test is pentagastrin stimulated gastric acid secretion. The experiment in a line: Rat Lumen Perfused Stomach (Pentagastrin Stimulated Gastric Acid Secretion). It counts as in vivo. The conditions noted are these: i.v., 10 μmol/kg. The source says:
B. Rat Lumen Perfused Stomach (Pentagastrin Stimulated Gastric Acid Secretion)
Using a modification of the procedure described by Ghosh & Schild (Br. J. Pharmacology, 13, 54, 1958), the compounds of the following examples were found on i.v. administration to cause an inhibition of pentagastrin stimulated gastric acid secretion as indicated in the following table. Results are given as % inhibition at 10 μmole/kg or ED50 (μM/kg): […]
For `CCOC(=O)c1cnc2sccc2c1Nc1ccccc1C` [Example 1, Ethyl 4-(2-methylohenylamino)thieno[2,3-b]pyridine-5-carboxylate], the “RAT GS % inhibition @ 10 μmol/kg” value is 32%. As for `CCOC(=O)c1cnc2sccc2c1NCc1ccccc1` [Example 2, Ethyl 4-benzylaminothieno[2,3-b]pyridine-5-carboxylate], the “RAT GS % inhibition @ 10 μmol/kg” value is on record as 13%. In the case of `CCOC(=O)c1cnc2ccsc2c1NCc1ccccc1` [Example 4, Ethyl 7-benzylaminothieno[3,2-b]pyridine-6-carboxylate], the “RAT GS % inhibition @ 10 μmol/kg” value is recorded as 19%.

On to `CCOC(=O)c1cnc2c(C)csc2c1NCc1ccccc1` [Example 6, Ethyl 3-methyl-7-benzylaminothieno[3,2-b]pyridine-6-carboxylate], for which the “RAT GS % inhibition @ 10 μmol/kg” value came to 31%. `CCCC(=O)c1cnc2ccsc2c1Nc1ccccc1C` [Example 11, 6-Butyryl-7-(2-methylphenylamino)thieno[3,2-b]pyridine]: the “RAT GS % inhibition @ 10 μmol/kg” value is recorded as 55%. Regarding `CCCC(=O)c1cnc2ccsc2c1Nc1ccc(F)cc1C` [Example 12, 6-Butyryl-7-(4-fluoro-2-methylphenylamino)thieno[3,2-b]-pyridine], the “RAT GS % inhibition @ 10 μmol/kg” value amounted to 38%.

In the case of `CCCC(=O)c1cnc2ccsc2c1Nc1ccccc1C(C)C` [Example 15, 6-Butyryl-7-(2-isopropylphenylamino)thieno[3,2-b]pyridine], the “RAT GS % inhibition @ 10 μmol/kg” value is recorded as 62%.

Staying with this test, now noted: iv, read-out: RAT GS ED50.
Consider `CCOC(=O)c1cnc2ccsc2c1Nc1ccccc1C` [Example 3, Ethyl 7-(2-methylphenylamino)thieno[3,2-b]pyridine-6-carboxylate], for which the 50% effective dose (ED50) was 9.7 µmol/kg.

Take `CCOC(=O)c1cnc2c(C)csc2c1Nc1ccccc1C` [Example 5, Ethyl 3-methyl-7-(2-methylphenylamino)thieno[3,2-b]-pyridine-6-carboxylate]: the ED50 was found to be 11.2 µmol/kg. Take `CCCC(=O)c1cnc2ccsc2c1Nc1ccccc1CC` [Example 13, 6-Butyryl-7-(2-ethylphenylamino)thieno[3,2-b]pyridine]: the ED50 was 3.32 µmol/kg.

As to `CCCC(=O)c1cnc2ccsc2c1Nc1ccc(O)cc1C` [Example 16, 6-Butyryl-(4-hydroxy-2-methylphenylamino)thieno[3,2-b]-pyridine], the ED50 came out at 4.03 µmol/kg.

The record behind these values is US4935431A, “Substituted 7-amino-thienopyridine derivatives as gastric acid secretion inhibitors” (SmithKline Beckman Intercredit B.V., priority 1988, dated 1990).
